From US9862730B2, “Imidazothiadiazole derivatives as protease activated receptor 4 (PAR4) inhibitors for treating platelet aggregation” (BRISTOL-MYERS SQUIBB COMPANY, priority 2012, dated 2018)

Molecular target: PAR4 (Homo sapiens (Human), UniProt Q96RI0)
Assay: FLIPR assay in PAR4-expressing HEK293 cells (PAR4 antagonist activity, calcium mobilization)
Format: cell-based
Conditions: FLIPR assay as described in Example A
Excerpt: The FLIPR assay is an exemplary in vitro assay for measuring the activity of the PAR4 antagonists of the present invention. In this assay, intracellular calcium mobilization is induced in PAR4 expressing cells by a PAR4 agonist and calcium mobilization is monitored. See, e.g., Example A.
HEK293 cells stably expressing PAR4 were generated by a standard method of transfection of human […] cDNA expression vector or by RAGE technology from Athersys Inc. (Cleveland, Ohio) and selected based on PAR4 protein expression of mRNA expression. […] These cells express endogenous PAR1 and can elicit calcium signal upon stimulation with PAR1 agonist peptide.
Counter screens for agonist activity and PAR1 antagonist activity were also performed. Briefly, HEK293 EBNA PAR4 clone 20664.1J cells were plated 24 hrs. prior to experiment in 384 well, Poly-D-Lysine coated, black, clear bottom plates (Greiner Bio-One, Monroe, N.C.). Cells were plated at 20,000 cells/well in 20 μl growth medium and incubated at 37° C. with 5% CO2 overnight. At time of assay, media was replaced with 40 μl 1× Hank's Buffered Saline Solution (HBSS) (with 10 mM HEPES) and 20 μl test compound also diluted in 1×HBSS buffer was added at various concentrations and 0.67% DMSO final concentration on the FDSS for agonist measurement. The cells were then incubated for 30 minutes at room temperature followed by addition of 20 μl of agonist peptide for antagonist measurement on the FDSS.
As indicated above, the FLIPR assay, an in vitro assay, measures the PAR4 antagonist activity of compounds tested as described in Example A.

Sequence of PAR4 (Q96RI0 18-385): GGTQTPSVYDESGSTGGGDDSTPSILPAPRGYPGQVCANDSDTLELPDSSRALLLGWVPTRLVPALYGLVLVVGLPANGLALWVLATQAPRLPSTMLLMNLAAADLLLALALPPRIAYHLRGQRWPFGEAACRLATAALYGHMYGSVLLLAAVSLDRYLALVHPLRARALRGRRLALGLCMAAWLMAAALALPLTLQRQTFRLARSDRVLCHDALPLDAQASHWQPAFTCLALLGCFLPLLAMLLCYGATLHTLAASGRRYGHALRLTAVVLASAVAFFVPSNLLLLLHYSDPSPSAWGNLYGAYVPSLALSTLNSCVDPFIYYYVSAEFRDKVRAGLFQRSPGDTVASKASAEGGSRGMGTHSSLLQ

Row | SMILES | IC50
1 | CSc1nn2cc(-c3nc4ccc(OCc5ccccn5)cc4o3)nc2s1 [Example 117, 2-(2-(Methylthio)imidazo[2,1-b][1,3,4]thiadiazol-6-yl)-6-(pyridin-2-ylmethoxy)benzo[d]oxazole] | 654 nM
2 | COc1cc2oc(-c3cn4nc(Br)sc4n3)cc2cc1Br [Example 275] | 23.1 nM
3 | CSc1nn2cc(-c3nc4c(OC[C@@H]5CCCN5C(=O)[C@H](NC(=O)c5cccs5)c5ccccc5)cccc4o3)nc2s1 [Example 338, N—((R)-2-((S)-2-(((2-(2-(Methylthio)imidazo[2,1-b][1,3,4]thiadiazol-6-yl)benzo[d]oxazol-4-yl)oxy)methyl)pyrrolidin-1-yl)-2-oxo-1-phenylethyl)thiophene-2-carboxamide] | 1160 nM
4 | COc1nn2cc(-c3cc4ccc(OCc5ccccc5)cc4o3)nc2s1 [Example 104] | 26.2 nM
5 | CSc1nn2cc(-c3nc4ccc(OCc5cccnc5)cc4o3)nc2s1 [Example 145] | 286 nM
6 | CCc1cccc2cc(-c3cn4nc(OC)sc4n3)oc12 [Example 92] | 13 nM
7 | COc1cc(OC)c2nc(-c3cn4nc(SC)sc4n3)oc2c1 [Example 177] | 3.78 nM
8 | COc1cc(OCc2cccc(OCc3ccc(C)c(Cl)c3)c2)c2cc(-c3cn4nc(OC)sc4n3)oc2c1 [Example 324] | 3.52 nM
9 | CSc1nn2cc(-c3nc4c(OCc5cc(F)cc(F)c5)cccc4o3)nc2s1 [Example 171] | 48.1 nM
10 | Cc1ccc2oc(-c3cn4nc(C)sc4n3)nc2c1 [Example 112, 5-Methyl-2-(2-methylimidazo[2,1-b][1,3,4]thiadiazol-6-yl)benzo[d]oxazole] | 382 nM
11 | COc1cc(OC)c2cc(-c3cn4nc(C(C)(F)F)sc4n3)oc2c1 [Example 242] | 50.5 nM
12 | COc1cccc2oc(-c3cn4nc(SC)sc4n3)nc12 [Example 149] | 13.6 nM
13 | Cc1cc2oc(-c3cn4nc(Br)sc4n3)cc2cc1Cl [Example 277] | 512 nM
14 | CCOc1cccc2cc(-c3cn4nc(CC)sc4n3)oc12 [Example 13, 6-(7-Ethoxybenzofuran-2-yl)-2-ethylimidazo[2,1-b][1,3,4]thiadiazole] | 147 nM
15 | COCOc1cccc2oc(-c3cn4nc(OC)sc4n3)cc12 [Example 217, 2-Methoxy-6-(4-(methoxymethoxy)benzofuran-2-yl)imidazo[2,1-b][1,3,4]thiadiazole] | 7.51 nM
16 | CSc1nn2cc(-c3cc4c(C(=O)O)cccc4o3)nc2s1 [Example 219, 2-(2-(Methylthio)imidazo[2,1-b][1,3,4]thiadiazol-6-yl)benzofuran-4-carboxylic acid] | 1280 nM
17 | COc1cc(OCc2cccc(OCc3ccc(F)c(C(F)(F)F)c3)c2)c2cc(-c3cn4nc(OC)sc4n3)oc2c1 [Example 315] | 8.88 nM
18 | COc1nn2cc(-c3nc4c(Cl)cccc4s3)nc2s1 [Example 196] | 791 nM
19 | COCOc1cccc2oc(-c3cn4nc(SC)sc4n3)nc12 [Example 163] | 39.5 nM
20 | CCc1nn2cc(-c3nc4ccc(OCc5cccc(Cl)c5)cc4o3)nc2s1 [Example 82] | 66 nM
21 | CSc1nn2cc(-c3nc4cc(F)c(F)cc4o3)nc2s1 [Example 137] | 23.9 nM

Row | SMILES | IC50
22 | Fc1cccc2cc(-c3cn4nc(Br)sc4n3)oc12 [Example 259] | 323 nM
23 | COc1cc(OC(C)C)c2cc(-c3cn4nc(OC)sc4n3)oc2c1 [Example 300] | 3.43 nM
24 | COc1cc(OC)c2cc(-c3cn4nc(C(C)(F)F)sc4n3)oc2c1Br [Example 225, 6-(7-Bromo-4,6-dimethoxybenzofuran-2-yl)-2-(1,1-difluoroethyl)imidazo[2,1-b][1,3,4]thiadiazole] | 300 nM
25 | COc1nn2cc(-c3nc4cc(Cl)ccc4o3)nc2s1 [Example 130] | 41.3 nM
26 | COc1cc(OCc2ccc(OC)c(OCc3ccccc3)c2)c2cc(-c3cn4nc(OC)sc4n3)oc2c1 [Example 351] | 2.23 nM
27 | COCOc1ccc2nc(-c3cn4nc(SC)sc4n3)oc2c1 [Example 162] | 171 nM
28 | FC(F)(Cl)c1nn2cc(-c3cc4ccccc4o3)nc2s1 [Example 209, 6-(Benzofuran-2-yl)-2-(chlorodifluoromethyl)imidazo[2,1-b][1,3,4]thiadiazole] | 442 nM
29 | CSc1nn2cc(-c3nc4ccc(OCc5ccccc5)cc4o3)nc2s1 [Example 115, 6-(Benzyloxy)-2-(2-(methylthio)imidazo[2,1-b][1,3,4]thiadiazol-6-yl)benzo[d]oxazole] | 74.9 nM
30 | CCc1nn2cc(-c3nc4ccc(OCC(C)C)cc4o3)nc2s1 [Example 85] | 392 nM
31 | COc1cc(OCc2cccc(OCc3ccccc3)c2)c2nc(-c3cn4nc(SC)sc4n3)oc2c1 [Example 403] | 0.86 nM
32 | CSc1nn2cc(-c3nc4c(OC[C@@H]5CCCN5C(=O)OC(C)(C)C)cccc4o3)nc2s1 [Example 332, (S)-tert-Butyl 2-(((2-(2-(methylthio)imidazo[2,1-b][1,3,4]thiadiazol-6-yl)benzo[d]oxazol-4-yl)oxy)methyl)pyrrolidine-1-carboxylate] | 253 nM
33 | CSc1nn2cc(-c3nc4c(N)cccc4o3)nc2s1 [Example 120, 2-(2-(Methylthio)imidazo[2,1-b][1,3,4]thiadiazol-6-yl)benzo[d]oxazol-4-amine] | 48.9 nM
34 | COc1cc(OCc2cccc(OCc3c(F)ccc(F)c3F)c2)c2cc(-c3cn4nc(OC)sc4n3)oc2c1 [Example 330] | 2.62 nM
35 | CC(F)(F)c1nn2cc(-c3cc4cc(Cl)ccc4o3)nc2s1 [Example 236] | 159 nM
36 | Cc1ccc2cc(-c3cn4nc(C(C)(F)F)sc4n3)oc2c1 [Example 233] | 15.7 nM
37 | CSc1nn2cc(-c3nc4c(OCCN5CCOCC5)cccc4o3)nc2s1 [Example 168] | 1150 nM
38 | CSc1nn2cc(-c3cc4ccc(C)cc4o3)nc2s1 [Example 21] | 22.1 nM
39 | Fc1ccc2nc(-c3cn4nc(Br)sc4n3)sc2c1 [Example 183, 2-(2-bromoimidazo[2,1-b][1,3,4]thiadiazol-6-yl)-6-fluorobenzo[d]thiazole] | 412 nM
40 | COc1nn2cc(-c3cc4ccc(F)cc4o3)nc2s1 [Example 96] | 7.92 nM
41 | COCOc1cccc2oc(-c3cn4nc(SC)sc4n3)cc12 [Example 215, 6-(4-(Methoxymethoxy)benzofuran-2-yl)-2-(methylthio)imidazo[2,1-b][1,3,4]thiadiazole] | 16.7 nM
42 | COc1nn2cc(-c3cc4c(OCc5cccc(C#N)c5)cccc4o3)nc2s1 [Example 281] | 1340 nM

Row | SMILES | IC50
43 | CSc1nn2cc(-c3nc4ccccc4o3)nc2s1 [Example 110, 2-(2-(Methylthio)imidazo[2,1-b][1,3,4]thiadiazol-6-yl)benzo[d]oxazole] | 213 nM
44 | CSc1nn2cc(-c3cc4c(OCc5cccnc5)cccc4o3)nc2s1 [Example 216, 2-(Methylthio)-6-(4-(pyridin-3-ylmethoxy)benzofuran-2-yl) imidazo[2,1-b][1,3,4]thiadiazole] | 482 nM
45 | COc1cc(OCc2cccc(OCc3cccc(Cl)c3)c2)c2cc(-c3cn4nc(OC)sc4n3)oc2c1 [Example 349] | 0.32 nM
46 | COc1cc2oc(-c3cn4nc(C(C)F)sc4n3)cc2cc1Cl (stereo in doubt) [270A] | 114 nM
47 | CSc1nn2cc(-c3nc4cccc(F)c4o3)nc2s1 [Example 143] | 48.8 nM
48 | CSc1nn2cc(-c3cc4c(OCc5ccc(F)cc5)cccc4o3)nc2s1 [Example 249] | 19.4 nM
49 | CCc1nn2cc(-c3nc4cc(C)c(C)cc4o3)nc2s1 [Example 46] | 565 nM
50 | COc1cc(OCc2cccc(OCc3ccccc3Br)c2)c2cc(-c3cn4nc(OC)sc4n3)oc2c1 [Example 360] | 2.47 nM
51 | COc1cc(OCc2cccc(OCc3cccc(NC(=O)c4ccccc4)c3)c2)c2cc(-c3cn4nc(OC)sc4n3)oc2c1 [Example 397] | 2.3 nM
52 | COc1ccc2cc(-c3cn4nc(C(C)(F)F)sc4n3)oc2c1 [Example 271] | 19.4 nM
53 | CC(F)(F)c1nn2cc(-c3cc4c(Cl)cc(Cl)cc4o3)nc2s1 [Example 238] | 42.5 nM
54 | COc1ccc2cc(-c3cn4nc(OC)sc4n3)oc2c1 [Example 71] | 1.22 nM
55 | CCc1nn2cc(-c3nc4ccc(OC5CCCCC5)cc4o3)nc2s1 [Example 80] | 695 nM
56 | CSc1nn2cc(-c3nc4ccc(OCc5cc(F)cc(F)c5)cc4o3)nc2s1 [Example 152] | 340 nM
57 | COc1cc(OCc2cccc(OCc3ccccc3Cl)c2)c2cc(-c3cn4nc(OC)sc4n3)oc2c1 [Example 362] | 1.24 nM
58 | CCc1nn2cc(-c3nc4ccc(OCc5ccncc5)cc4o3)nc2s1 [Example 86] | 1210 nM
59 | CCCOc1cccc2cc(-c3cn4nc(CC)sc4n3)oc12 [Example 56] | 601 nM
60 | COc1nn2cc(-c3cc4ccc(C)c(C)c4o3)nc2s1 [Example 102] | 542 nM
61 | CSc1nn2cc(-c3cc4cccc(OC(F)(F)F)c4o3)nc2s1 [Example 70] | 400 nM
62 | COc1nn2cc(-c3cc4cc(Cl)c(OC)cc4o3)nc2s1 [Example 201, 2-Methoxy-6-(5-chloro-6-methoxybenzofuran-2-yl)imidazo[2,1-b][1,3,4]thiadiazole] | 4.38 nM
63 | COc1nn2cc(-c3cc4cc(Br)c(OC)cc4o3)nc2s1 [Example 278] | 52.6 nM
